Measured values taken from patent US20230147257A1 (DONG-A ST CO., LTD., priority 2020, published 2023).
Counter-ions that a name gives are not always drawn. Like-named read-outs stand apart in the source and are kept apart here.

Target: T1, AhR (Homo sapiens, UniProt P35869)
T1 construct: host or cells: HepG2
T1 sequence (P35869 11-848): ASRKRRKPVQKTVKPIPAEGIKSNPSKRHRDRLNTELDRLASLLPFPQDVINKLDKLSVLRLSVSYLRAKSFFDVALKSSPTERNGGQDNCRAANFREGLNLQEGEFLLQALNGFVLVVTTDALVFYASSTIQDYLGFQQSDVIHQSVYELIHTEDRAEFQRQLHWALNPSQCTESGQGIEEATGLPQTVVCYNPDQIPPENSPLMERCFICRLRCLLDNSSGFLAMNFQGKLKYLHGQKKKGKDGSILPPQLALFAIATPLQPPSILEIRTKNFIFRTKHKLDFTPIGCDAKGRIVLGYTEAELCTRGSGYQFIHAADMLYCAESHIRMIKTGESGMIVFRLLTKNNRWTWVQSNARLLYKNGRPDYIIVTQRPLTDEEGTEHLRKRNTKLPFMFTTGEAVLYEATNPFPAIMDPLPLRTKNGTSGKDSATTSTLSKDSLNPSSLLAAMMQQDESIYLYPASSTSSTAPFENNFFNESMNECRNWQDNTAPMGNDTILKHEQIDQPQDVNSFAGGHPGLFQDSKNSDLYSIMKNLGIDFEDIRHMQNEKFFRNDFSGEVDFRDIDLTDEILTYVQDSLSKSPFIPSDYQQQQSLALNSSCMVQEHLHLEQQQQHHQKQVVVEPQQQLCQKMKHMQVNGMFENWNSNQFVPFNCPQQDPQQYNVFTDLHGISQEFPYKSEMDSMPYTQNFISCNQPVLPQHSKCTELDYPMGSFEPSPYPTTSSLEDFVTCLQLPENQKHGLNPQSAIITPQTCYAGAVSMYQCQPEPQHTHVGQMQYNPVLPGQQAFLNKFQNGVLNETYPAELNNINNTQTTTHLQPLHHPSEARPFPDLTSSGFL
Assay: In vitro assay 1: XRE-luciferase reporter assay, antagonism in human cell line (HepG2)
Assay type: cell-based
Description: In Vitro XRE-Luciferase Reporter Assay (In Vitro Assay 1, 2, 3)
AhR activation leads the induction of target gene expression such as CYP1A1 and CYP1B1 by AhR binding to AhR-responsive DNA elements also known as xenobiotics responsive elements (XRE). The assay for measuring AhR activity herein is the luciferase assay using cell lines transfected with luciferase reporter plasmid containing XREs at the upstream of the reporter gene. Cells transfected with XRE-luciferase reporter (XRE-Luc) plasmid drive luciferase activity reflecting activation and inhibition of AhR in the cells. In addition to transfection with XRE-reporter vector, cells were co-transfected with Nano-luciferase reporter gene construct (Nano-Luc) containing constitutively active promoter as internal control. Kynurenine (an endogenous AhR agonist) was used to stimulate cells to test antagonistic properties of the compounds. The half-maximal inhibitory concentration (IC50) or half-maximal effective concentration (EC50) value was calculated using nonlinear regression (four parameters) with Prism8.0 software (GraphPad).
In Vitro Assay 1: Antagonism in Human Cell Line
HepG2 (human hepatoma cell line) cell line with a XRE-luciferase reporter either transiently or stably (Invivogen) were plated in complete medium and incubated at 37° C. in a CO2 incubator. After 24 hours, cells were treated with kynurenine (50* or 200 μM) alone (negative control) or with test compounds for 6 hours. Luciferase activity was measured with a commercial kit such as the Promega Luciferase kit or other reagents for measuring luciferase activity. Relative luciferase activity (Firefly/Nano-Luc) was used to calculate IC50 values. The relative luciferase activity was further normalized with kynurenine alone group as the maximum control and the vehicle group as the minimum control. (IC50 values are grouped as A, B, C and D, whereby A: IC50<0.01 μM; B: 0.01<IC50<0.1 μM; C: 0.1<IC50<1.0 μM; D: IC50>1.0 μM)

[1] = HepG2 XRE-luciferase, cells treated with kynurenine 200 μM (no *), 6 hours, read-out: Assay 1: AhR-Luc Human Antagonism (IC50)
[2] = HepG2 XRE-luciferase, cells treated with kynurenine 50 μM (*), 6 hours, read-out: Assay 1: AhR-Luc Human Antagonism (IC50)

Row | SMILES | IC50 [1] | further results
1 | O=c1c2cc(-c3ccc(C(F)(F)F)cc3)nc(-c3cccnc3)c2ncn1[C@H]1CC[C@@H](O)C1 [Example 33, 3-((1S,3R)-3-hydroxycyclopentyl)-8-(pyridin-3-yl)-6-(4-(trifluoromethyl)phenyl)pyrido[3,4-d]pyrimidin-4(3H)-one] | < 10 nM | 
2 | CC(C)C(CO)n1cnc2c(-c3cccnc3)nc(-c3ccc(C(F)(F)F)nc3)cc2c1=O (centres unmarked) [Example 43, 3-(1-hydroxy-3-methylbutan-2-yl)-8-(pyridin-3-yl)-6-(6-(trifluoromethyl)pyridin-3-yl)pyrido[3,4-d]pyrimidin-4(3H)-one] | > 1000 nM | 
3 | CCOP(=O)(OCC)OCC(C)n1cnc2c(-c3cccnc3)nc(-c3ccc(Cl)cc3)cc2c1=O (centres unmarked) [Example 47, 2-(6-(4-chlorophenyl)-4-oxo-8-(pyridin-3-yl)pyrido[3,4-d]pyrimidin-3(4H)-yl)propyl diethyl phosphate] |  | IC50: 10 to 100 nM
4 | CS(=O)(=O)CCn1cnc2c(-c3cccnc3)nc(-c3ccc(N4CCOCC4)cc3)cc2c1=O [Example 79, 3-(2-(methylsulfonyl)ethyl)-6-(4-morpholinophenyl)-8-(pyridin-3-yl)pyrido[3,4-d]pyrimidin-4(3H)-one] | < 10 nM | 
5 | O=c1c2cc(-c3ccc(Cl)cc3)nc(-c3cccnc3)c2ncn1-c1cccc(O)c1 [Example 61, 6-(4-chlorophenyl)-3-(3-hydroxyphenyl)-8-(pyridin-3-yl)pyrido[3,4-d]pyrimidin-4(3H)-one] | < 10 nM | 
6 | O=c1c2cc(-c3ccc(Cl)cc3)nc(-c3cccnc3)c2ncn1CC(O)C(F)(F)F (centres unmarked) [Example 24, 6-(4-chlorophenyl)-8-(pyridin-3-yl)-3-(3,3,3-trifluoro-2-hydroxypropyl)pyrido[3,4-d]pyrimidin-4(3H)-one] | < 10 nM | 
7 | CC(CO)n1cnc2c(-c3ccc(Cl)cc3)nc(-c3cccnc3)cc2c1=O (centres unmarked) [Example 5, 8-(4-chlorophenyl)-3-(1-hydroxypropan-2-yl)-6-(pyridin-3-yl)pyrido[3,4-d]pyrimidin-4(3H)-one] |  | IC50 [2]: > 1000 nM
8 | CC(CN)n1cnc2c(-c3cccnc3)nc(-c3ccc(C(F)(F)F)cc3)cc2c1=O (centres unmarked) [Example 85, 3-(1-aminopropan-2-yl)-8-(pyridin-3-yl)-6-(4-(trifluoromethyl)phenyl)pyrido[3,4-d]pyrimidin-4(3H)-one] | 10 to 100 nM | 
9 | Cn1cc(-c2cc3c(=O)n(C4CCCC(O)C4)cnc3c(-c3cnn(C)c3)n2)cn1 (centres unmarked) [Example 2, 3-(3-hydroxycyclohexyl)-6,8-bis(1-methyl-1H-pyrazol-4-yl)pyrido[3,4-d]pyrimidin-4(3H)-one] |  | IC50 [2]: 100 to 1000 nM
10 | O=c1c2cc(-c3cnc(C(F)(F)F)nc3)nc(-c3cccnc3)c2ncn1[C@@H]1CC[C@H](O)C1 [Example 72, 3-((1R,3S)-3-hydroxycyclopentyl)-8-(pyridin-3-yl)-6-(2-(trifluoromethyl)pyrimidin-5-yl)pyrido[3,4-d]pyrimidin-4(3H)-one, TFA salt] | 10 to 100 nM | 
11 | Cn1cc(-c2nc(-c3ccc(Cl)cc3)cc3c(=O)n([C@H]4CCCC[C@H]4O)cnc23)cn1 [Example 20, 6-(4-chlorophenyl)-3-((1S,2R)-2-hydroxycyclohexyl)-8-(1-methyl-1H-pyrazol-4-yl)pyrido[3,4-d]pyrimidin-4(3H)-one] | > 1000 nM | 
12 | Cn1cc(-c2nc(-c3ccc(Cl)cc3)cc3c(=O)n([C@H]4CC[C@@H](O)C4)cnc23)cn1 [Example 34, 6-(4-chlorophenyl)-3-((1S,3R)-3-hydroxycyclopentyl)-8-(1-methyl-1H-pyrazol-4-yl)pyrido[3,4-d]pyrimidin-4(3H)-one] | < 10 nM | 
13 | O=c1c2cc(-c3ccc(C(F)(F)F)cc3)nc(-c3cccnc3)c2ncn1C1CCNCC1 [Example 93, 3-(piperidin-4-yl)-8-(pyridin-3-yl)-6-(4-(trifluoromethyl)phenyl)pyrido[3,4-d]pyrimidin-4(3H)-one] | < 10 nM | 
14 | Cn1cc(-c2nc(-c3ccc(C(F)(F)F)cc3)cc3c(=O)n([C@@H]4CCCC[C@@H]4O)cnc23)cn1 [Example 18, 3-((1R,2S)-2-hydroxycyclohexyl)-8-(1-methyl-1H-pyrazol-4-yl)-6-(4-(trifluoromethyl)phenyl)pyrido[3,4-d]pyrimidin-4(3H)-one] | < 10 nM | 
15 | Cn1cc(-c2nc(-c3ccc(C(F)(F)F)cc3)cc3c(=O)n([C@@H]4CC[C@H](O)C4)cnc23)cn1 [Example 31, 3-((1R,3S)-3-hydroxycyclopentyl)-8-(1-methyl-1H-pyrazol-4-yl)-6-(4-(trifluoromethyl)phenyl)pyrido[3,4-d]pyrimidin-4(3H)-one] | < 10 nM | 
16 | CC(CN)n1cnc2c(-c3cccnc3)nc(-c3ccc(Cl)cc3)cc2c1=O (centres unmarked) [Example 87, 3-(1-aminopropan-2-yl)-6-(4-chlorophenyl)-8-(pyridin-3-yl)pyrido[3,4-d]pyrimidin-4(3H)-one] | < 10 nM | 
17 | Cn1cc(-c2cc3c(=O)n([C@H]4CC[C@H](O)CC4)cnc3c(-c3cnn(C)c3)n2)cn1 [Example 9, 3-((1r,4r)-4-hydroxycyclohexyl)-6,8-bis(1-methyl-1H-pyrazol-4-yl)pyrido[3,4-d]pyrimidin-4(3H)-one] |  | IC50 [2]: 100 to 1000 nM
18 | CC(O)Cn1cnc2c(-c3cnn(C)c3)nc(-c3cnn(C)c3)cc2c1=O (centres unmarked) [Example 11, 3-(2-hydroxypropyl)-6,8-bis(1-methyl-1H-pyrazol-4-yl)pyrido[3,4-d]pyrimidin-4(3H)-one] |  | IC50 [2]: 100 to 1000 nM

More lines, main results first:

Row | IC50 [1] | SMILES | further results
19 | < 10 nM | CC(C)(O)Cn1cnc2c(-c3cccnc3)nc(-c3ccc(C(F)(F)F)nc3)cc2c1=O [Example 40, 3-(2-hydroxy-2-methylpropyl)-8-(pyridin-3-yl)-6-(6-(trifluoromethyl)pyridin-3-yl)pyrido[3,4-d]pyrimidin-4(3H)-one] | 
20 | < 10 nM | O=c1c2cc(-c3ccc(Cl)cc3)nc(-c3cccnc3)c2ncn1[C@@H]1CC[C@H](O)C1 [Example 28, 6-(4-chlorophenyl)-3-((1R,3S)-3-hydroxycyclopentyl)-8-(pyridin-3-yl)pyrido[3,4-d]pyrimidin-4(3H)-one] | 
21 | > 1000 nM | CC(C)C(CO)n1cnc2c(-c3cccnc3)nc(-c3ccc(Cl)cc3)cc2c1=O (centres unmarked) [Example 41, 6-(4-chlorophenyl)-3-(1-hydroxy-3-methylbutan-2-yl)-8-(pyridin-3-yl)pyrido[3,4-d]pyrimidin-4(3H)-one] | 
22 | 100 to 1000 nM | CC(CN)n1cnc2c(-c3cccnc3)nc(-c3ccc(N4CCOCC4)cc3)cc2c1=O (centres unmarked) [Example 90, 3-(1-aminopropan-2-yl)-6-(4-morpholinophenyl)-8-(pyridin-3-yl)pyrido[3,4-d]pyrimidin-4(3H)-one] | 
23 | < 10 nM | O=c1c2cc(-c3ccc(Cl)cc3)nc(-c3cccnc3)c2ncn1C(CO)CO [Example 70, 6-(4-chlorophenyl)-3-(1,3-dihydroxypropan-2-yl)-8-(pyridin-3-yl)pyrido[3,4-d]pyrimidin-4(3H)-one] | 
24 | > 1000 nM | CC(C)(O)Cn1cnc2c(-c3cccnc3)nc(-c3ccc(C(F)(F)F)cc3)cc2c1=O [Example 39, 3-(2-hydroxy-2-methylpropyl)-8-(pyridin-3-yl)-6-(4-(trifluoromethyl)phenyl)pyrido[3,4-d]pyrimidin-4(3H)-one] | 
25 | < 10 nM | CC(CNS(C)(=O)=O)n1cnc2c(-c3cccnc3)nc(-c3ccc(N4CCOCC4)cc3)cc2c1=O (centres unmarked) [Example 91, N-(2-(6-(4-morpholinophenyl)-4-oxo-8-(pyridin-3-yl)pyrido[3,4-d]pyrimidin-3(4H)-yl)propyl)methanesulfonamide] | 
26 | < 10 nM | Cn1cc(-c2nc(-c3ccc(C(F)(F)F)cc3)cc3c(=O)n([C@H]4CC[C@@H](O)C4)cnc23)cn1 [Example 35, 3-((1S,3R)-3-hydroxycyclopentyl)-8-(1-methyl-1H-pyrazol-4-yl)-6-(4-(trifluoromethyl)phenyl)pyrido[3,4-d]pyrimidin-4(3H)-one] | 
